Among the test systems are SN12C renal; SR leukemia; HCC-2998 colon; SK-MEL-5 melanoma; MALME-3M melanoma; HCT-15 colon; SF-268 CNS; HL-60(TB) leukemia; NCI-H460 lung; HOP-92 NSCLC.
What all share (experiment): NCI-60 cell line screen, 48 h

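Five concentrations, 48 hours, 96-well plates. Abbreviation: GI50, concentration required for 50% inhibition of growth. At the TGI there is no net growth.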

The source of these data is PubChem BioAssay (NCI).

As to `Cc1nccc2c3ccc(OCc4cn(-c5ccc(Cl)cc5)nn4)cc3n(CC(C)C)c12`, the GI50 is 3.69 µM in the experiment on SN12C renal; 1.03 µM with SR leukemia; 3.68 µM with HCC-2998 colon; 1.64 µM in the experiment with SK-MEL-5 melanoma; 4.62 µM with MALME-3M melanoma; 1.28 µM in the experiment on HCT-15 colon. The GI50 is 11.2 µM in the experiment on SF-268 CNS, 0.886 µM with HL-60(TB) leukemia, 2.33 µM in the experiment with NCI-H460 lung and 1.19 µM with HOP-92 NSCLC. For the same compound, the TGI in the experiment with SN12C renal is more than 33.3 µM; with SR leukemia, 5.53 µM; in the experiment with HCC-2998 colon, more than 33.3 µM; in the experiment on SK-MEL-5 melanoma, 6.15 µM; with MALME-3M melanoma it was 13 µM; in the experiment with HCT-15 colon it was 21.5 µM. For the same compound, the TGI was more than 33.3 µM in the experiment on SF-268 CNS, 2.07 µM in the experiment with HL-60(TB) leukemia, 12.9 µM in the experiment on NCI-H460 lung and 13.6 µM with HOP-92 NSCLC.

For the compound `CCCN1CCC(c2ccc(Nc3nc(Nc4cc(F)ccc4C(N)=O)c4cc[nH]c4n3)c(OC)c2)CC1`, the GI50 in the experiment with SN12C renal is 3.62 µM; with SR leukemia it was 0.0131 µM; with HCC-2998 colon, 2.53 µM; with SK-MEL-5 melanoma, 3.41 µM; in the experiment on MALME-3M melanoma, 3.13 µM; in the experiment with HCT-15 colon it was 0.54 µM. Moreover, the GI50 is 3.42 µM with SF-268 CNS, 0.0565 µM in the experiment on HL-60(TB) leukemia, 0.147 µM in the experiment on NCI-H460 lung and 0.00586 µM with HOP-92 NSCLC. Besides, the TGI came out at 8.55 µM with SN12C renal; 4.54 µM in the experiment with SR leukemia; 5.5 µM with HCC-2998 colon; 6.63 µM in the experiment on SK-MEL-5 melanoma; 7.54 µM with MALME-3M melanoma; 15.1 µM in the experiment with HCT-15 colon. In addition, the TGI turned out to be 7.8 µM in the experiment with SF-268 CNS, 5.81 µM in the experiment on HL-60(TB) leukemia, 1.43 µM in the experiment on NCI-H460 lung and 0.126 µM in the experiment with HOP-92 NSCLC.

In the case of `COc1ccc(N(C)c2nc(Cl)nc3cnn(C)c23)cc1`, the GI50 in the experiment on SN12C renal is less than 0.0203 µM; in the experiment with SR leukemia, less than 0.01 µM; in the experiment on HCC-2998 colon, 0.0285 µM; in the experiment with SK-MEL-5 melanoma, less than 0.01 µM; with HCT-15 colon, less than 0.01 µM; with SF-268 CNS, less than 0.0112 µM. Also, the GI50 with HL-60(TB) leukemia, in the experiment on NCI-H460 lung and in the experiment with HOP-92 NSCLC was less than 0.01 µM throughout. Also, the TGI in the experiment on SN12C renal was more than 100 µM; in the experiment on SR leukemia, more than 100 µM; with HCC-2998 colon, more than 59.7 µM; with SK-MEL-5 melanoma, 0.0874 µM; with MALME-3M melanoma, more than 100 µM; with HCT-15 colon, more than 100 µM. Also, the TGI with SF-268 CNS is more than 100 µM; in the experiment with HL-60(TB) leukemia, less than 0.0222 µM; in the experiment with NCI-H460 lung it was more than 100 µM; with HOP-92 NSCLC it was 7.95 µM.

`COCc1c(-c2ccc(NC(=O)Nc3cc(C(F)(F)F)ccc3F)c(F)c2)c2c(N)ncnn2c1CN1CCOCC1`: the GI50 with SN12C renal is 1.39 µM; in the experiment on SR leukemia, 0.398 µM; in the experiment with HCC-2998 colon, 2.84 µM; in the experiment on SK-MEL-5 melanoma, 2.49 µM; in the experiment on MALME-3M melanoma it was 2.72 µM; in the experiment on HCT-15 colon, 1.74 µM. For the same compound, the GI50 is 1.13 µM with SF-268 CNS, 3.46 µM in the experiment with HL-60(TB) leukemia, 2.24 µM in the experiment on NCI-H460 lung and 0.382 µM with HOP-92 NSCLC. For the same compound, the TGI in the experiment with SN12C renal is more than 10 µM; in the experiment with SR leukemia, 3.9 µM; in the experiment on HCC-2998 colon it was 7.33 µM; in the experiment on SK-MEL-5 melanoma it was more than 10 µM; in the experiment with MALME-3M melanoma, more than 10 µM; with HCT-15 colon, more than 10 µM. The TGI in the experiment on SF-268 CNS was 5.2 µM; in the experiment with HL-60(TB) leukemia it was more than 10 µM; in the experiment on NCI-H460 lung, 9.74 µM; in the experiment on HOP-92 NSCLC, 5.97 µM.

On to `COc1ccc2c(c1)C(=O)c1c-2c(Nc2cccc(C(C)=O)c2)nc2ccccc12`, for which the GI50 in the experiment with SN12C renal was 10.3 µM; in the experiment with SR leukemia, 21.6 µM; in the experiment with HCC-2998 colon, 16.1 µM; in the experiment with SK-MEL-5 melanoma, 5.22 µM; in the experiment with MALME-3M melanoma it was 18 µM; with HCT-15 colon it was 24 µM. In addition, the GI50 in the experiment on SF-268 CNS was 36.5 µM; with HL-60(TB) leukemia, more than 100 µM; in the experiment with NCI-H460 lung, 23.5 µM; in the experiment with HOP-92 NSCLC, 11.1 µM. The TGI with SN12C renal was 40.1 µM; in the experiment with SR leukemia it was more than 100 µM; with HCC-2998 colon it was 91.4 µM; in the experiment with SK-MEL-5 melanoma, 18.9 µM; in the experiment with MALME-3M melanoma, 48.3 µM; in the experiment on HCT-15 colon, more than 100 µM. For the same compound, the TGI was more than 100 µM in the experiment on SF-268 CNS, more than 100 µM in the experiment with HL-60(TB) leukemia, more than 100 µM with NCI-H460 lung and 27.7 µM in the experiment with HOP-92 NSCLC.

Consider `Nc1c(F)cc(-c2nc3cc(F)ccc3[se]2)cc1Br`, for which the GI50 with SN12C renal was 17.7 µM; in the experiment with SR leukemia, less than 0.0162 µM; in the experiment on HCC-2998 colon, 0.0477 µM; in the experiment with SK-MEL-5 melanoma it was 0.104 µM; with MALME-3M melanoma it was 25.3 µM; in the experiment on HCT-15 colon, 0.0476 µM. For the same compound, the GI50 in the experiment on SF-268 CNS was 29.4 µM; with HL-60(TB) leukemia it was more than 100 µM; in the experiment on NCI-H460 lung, 0.0189 µM; in the experiment on HOP-92 NSCLC, 0.526 µM. In addition, the TGI is more than 100 µM in the experiment on SN12C renal; more than 100 µM in the experiment with SR leukemia; 0.35 µM in the experiment with HCC-2998 colon; more than 100 µM with SK-MEL-5 melanoma; more than 100 µM in the experiment with MALME-3M melanoma; more than 100 µM in the experiment with HCT-15 colon. The TGI in the experiment with SF-268 CNS was more than 100 µM; in the experiment with HL-60(TB) leukemia, more than 100 µM; in the experiment with NCI-H460 lung, more than 35.2 µM; in the experiment with HOP-92 NSCLC, 19.4 µM.

Take `CCC[CH2][Pb]([Cl])([CH2]CCC)[CH2]CCC`: the GI50 was 0.0152 µM in the experiment with SN12C renal; 0.0671 µM in the experiment with SR leukemia; 0.0439 µM in the experiment on HCC-2998 colon; 0.0534 µM in the experiment with SK-MEL-5 melanoma; 0.00428 µM in the experiment on MALME-3M melanoma; 0.0195 µM in the experiment on HCT-15 colon. The GI50 is 0.0192 µM in the experiment with SF-268 CNS, 0.0232 µM in the experiment with HL-60(TB) leukemia, 0.0177 µM in the experiment on NCI-H460 lung and 0.058 µM in the experiment on HOP-92 NSCLC. Moreover, the TGI was found to be 0.0294 µM in the experiment with SN12C renal; 0.136 µM with HCC-2998 colon; 0.128 µM in the experiment on SK-MEL-5 melanoma; 0.0261 µM with MALME-3M melanoma; 0.0487 µM in the experiment with HCT-15 colon; 0.0677 µM in the experiment with SF-268 CNS. Further, the values for the TGI in the experiment with HL-60(TB) leukemia, with NCI-H460 lung and with HOP-92 NSCLC were 0.0444 µM, 0.0417 µM and 0.196 µM, respectively.
